From patent US12514931B2, “Microsphere-drug combination” (UCL Business LTD, priority 2019, dated 2026) come the findings set out here.

A short description of data set [1]: Loading of taxanes onto PLGA TIPS microspheres via antisolvent precipitation (drug loading efficiency, UV 229 nm). The class given is physicochemical. As to conditions: for taxane loaded onto the microspheres from the solution: 0.1% (w/v) pure taxane in ethanol, 5 mg dry PLGA TIPS microspheres, within 60 minutes of initiating mixing. How it is done: A facile method was developed to load DTX and other taxanes such as paclitaxel and cabazitaxel onto TIPS microspheres via antisolvent precipitation (FIG. 1). 5 mg of PLGA TIPS microspheres were transferred into 20 ml clear Type 1B boroscilicate glass vials and sealed with a butyl injection stopper. 4.5 mL of ultrapure water was added to the vial and vortexed for 10 seconds. 0.5 ml of 0.1% (w/v) taxane in ethanol, or a formulation of docetaxel or paclitaxel matching Taxotere® or Taxol® was added using a 1 mL syringe with a 25G needle through the rubber stopper, when the vial was inverted. The vial was then vortexed for 10 seconds and placed on a roller mixer (IKA® Roller 6 Digital; 60 rpm) at room temperature for predetermined periods (5, 15, 30, 60, 120 minutes).
Drug loading efficiency (DLE) of the taxane, such as DTX, onto the TIPS microspheres at each time-point was calculated according to Equation 1. The amount of free taxane left in the solution was measured by UV spectroscopy at the wavelength of 229 nm using a Nanodrop 2000c spectrophotometer (Thermo Scientific, Waltham, MA, USA).
• 1. Dry TIPS PLGA microspheres (size range of 250-350 μm): Docetaxel loaded onto 5 mg PLGA TIPS microspheres as described directly above. […] An equivalent number of solid PLGA microspheres (size range of 250-350 μm) to the quantity of microspheres in 5 mg of dry TIPS PLGA microspheres were transferred into 20 ml clear Type 1B boroscilicate glass vials and sealed with a butyl injection stopper. […] Drug loading efficiency (DLE) of docetaxel (DTX) onto the TIPS microspheres at each time-point was calculated according to Equation 1. The amount of free docetaxel left in the solution was measured by UV spectroscopy at the wavelength of 229 nm using a Nanodrop 2000c spectrophotometer (Thermo Scientific, Waltham, MA, USA). […]

Data set [2] can be described thus: DTX concentration in tissues from explanted organs (LC-MS/MS). The class given is in vivo, NSG mice. The following applies: NSG, mouse, intravenous, 10 mg/kg; for concentration at 1 day: day 1 post-administration; for concentration at 10 day: day 10 post-administration; for concentration at 35 day: day 35 post-administration. How it is done:
At the end of the in-life phase (day 1, 10 and 35 post-treatment) the mice were euthanised by overdose of CO2, followed by cervical dislocation and organs (heart, liver, kidneys, lungs and spleen) were collected, weighed and immediately frozen in liquid nitrogen before storage at −80° C. until further analysis. Evaluation of docetaxel concentrations was carried out by liquid chromatography tandem mass spectrometry in tissue following homogenisation in 3 ml/g (spleens 5 ml/g) 10 mM PBS using a Precellys 24 homogeniser (Bertin technologies, Montigny-le-Bretonneux, France). 45 μl tissue homogenate was spiked with 5 μl DMSO, samples were mixed and protein precipitated with 150 μl acetonitrile containing DTX-D9 as internal standard (25 nM). Samples were mixed and centrifuged. Supernatant was taken and diluted 40:60 with 0.5% sodium acetate (20 μM) in ammonium acetate (10 mM, pH 5). Blanks, calibration curve and QCs were prepared as above using tissues obtained from the same strain of mice (NSG) and spiked with DMSO, working calibration standard and working QC respectively. Blanks consisted of protein precipitated with acetonitrile alone, blank+, standards and QCs were protein precipitated with acetonitrile containing DTX-D9.

A further data set deals with PC3 cells. Put plainly: Colony formation assay with perfusate from DTX-TIPS microspheres. As to conditions: DTX released into perfusate during the first 5 days. The class given is cell-based, human. How it is done:
PC3 cells were maintained in Ham's F12-K medium (Kaighn's modification) (Invitrogen, 21127-022) supplemented with 10% (v/v) foetal bovine serum (FBS) and 1% antibiotics (referred to henceforth as complete medium). Cells were cultured at 37° C. under 5% CO2 atmosphere in a humidified incubator.
PC3 cells cultured in 6 well plates were incubated for 48 hours in 2 ml of perfusate (conditioned complete culture medium) collected from DTX-TIPS microspheres loaded into the perfusion system, as outlined above. Colony formation assays were performed as previously described (Franken NAP, Rodermond HM, Stap J, Haveman J, van Bree C. Clonogenic assay of cells in vitro. Nat Protoc. 2006; 1(5):2315-2319). […] The colonies were counted in ImageJ using the ‘Colony Counter’ plug in (processing parameters: size 100-30,000; circularity 0.5-1) (https://imagej.nih.gov/ij/plugins/colony-counter.html).
Plating efficiency (PE) was estimated by dividing the number of colonies counted by the number of cells initially seeded. […]

Data set [3] can be described thus: Docetaxel release from DTX-TIPS microspheres in dynamic perfusion system. As to conditions: PBS pH 7.4, 37 C, 0.01 mL/min; over 5 days. The class given is physicochemical. The protocol:
Release profile of DTX from the TIPS microspheres was investigated using a dynamic perfusion system to simulate tissue perfusion of the drug-device combination in the physiological milieu when used in clinic following radical prostatectomy. Thus, the perfusion system was placed inside an incubator at 37° C. and physiological simulated medium (phosphate buffed saline (PBS); pH 7.4) was used as perfusate. DTX-loaded microspheres were mixed with 100 μl of 70% (v/v) GranuGel® (Convatec, UK) diluted in ultrapure water and the mixture was placed between two 25 mm circular filter papers (Whatman® qualitative cellulose filter paper, Grade 1), where their positions were held by a Swin-Lok™ plastic membrane filter holder. A hypodermic needle (18G×40 mm) connecting the outlet of the filter holder, was inserted through the lid of a 50 ml polypropylene container to collect the perfusate. PBS was pumped through the filter holder by a peristaltic pump (Harvard Apparatus) at a flow rate of 0.01 mL/min. […]
The amount of DTX released in the perfusate was determined using a predetermined standard curve. At each measurement, the concentration of DTX in the release medium collected in the polypropylene container was determined by UV spectroscopy at 229 nm as described above, to calculate the cumulative DTX release according to Equation 2.

Data set [4] in a line: Measurement of DTX in plasma after administration (LC-MS/MS). It counts as in vivo, BALB/cAnNCrl mice. The protocol:
Docetaxel-loaded TIPS microspheres were prepared via anti-solvent precipitation, as outlined above. […] For measurement of circulating DTX in plasma, blood samples were collected via the tail vein at day 0 (pre-dose), and days 1, 2, 3, 7, 10 then every 5 days until day 35 immediately before the end of in life phase. Blood samples were collected into 10 μl capillaries containing sodium heparin (Hirschmann, Eberstadt, Germany) and placed in wells of a 2 ml deep well plate that was stored at −80° C. until extraction.
On the day of the extraction, calibration curve and sample plates were thawed. 125 μl of water:acetonitrile containing 0.4% […] was added to blanks, calibration curve and QCs. 125 μl of 70:30 water:acetonitrile containing 0.4% DMSO was added to all samples. 40 μl of each […]:water:acetonitrile sample was taken and protein precipitated with 120 μl acetonitrile containing DTX-D9 (25 nM). Samples were mixed and centrifuged. Supernatant was taken and diluted 40:60 with 0.5% sodium acetate (20 μM) in ammonium acetate (10 mM, pH5).
Liquid chromatography-mass spectrometry analysis was carried out with a Waters (Milford, MA) H-class Acquity solvent manager and sample manager on a Waters Acquity HSS PFP column (1.8 μm, 50 mm×2.1 mm id) with a gradient consisting of 10 mM ammonium acetate (pH 5.0) and acetonitrile mobile phases. The flow rate was 0.6 ml/min and the run time 5.6 minutes. Analyte and internal standard were ionised using electrospray ionisation in positive ion mode. Detection of analytes was via tandem mass spectrometry (MS/MS) using a Waters Xevo TQ-S mass spectrometer in the multiple reaction monitoring (MRM) mode. For DTX and DTX-D9 (IS), the transitions m/z 830.4-248.1/304.2 and m/z 839.4-313.0 were monitored respectively. The calibration curve was linear over the concentration range […].

For another data set, the system named is PC3 xenograft tumour. Put plainly: In vivo tumour growth inhibitory activity, PC3 xenograft. Details: species or system NSG immunodeficient mice. The protocol:
Female NSG™ immunodeficient mice (NOD.Cg-PrkdscidIl2rgtm1Wjl/SzJ; Charles River), aged 6-7 weeks and 18-20 g in body weight, were acclimatised for 1 week prior to injection of tumour cells. PC3 cells (5.0×10^6 cells in 100 μl phosphate buffered saline [PBS]) were injected subcutaneously into the right flank of each mouse. The dimensions of tumour were measured three times per week using digital callipers and the tumour volume calculated using the following formula: […]

The structures appear in SMILES notation. Some results are limits rather than exact numbers.

Turning to `CO[C@H]1C(=O)[C@]2(C)[C@@H](OC)C[C@H]3OC[C@@]3(OC(C)=O)[C@H]2[C@H](OC(=O)c2ccccc2)[C@]2(O)C[C@H](OC(=O)[C@H](O)[C@@H](NC(=O)OC(C)(C)C)c3ccccc3)C(C)=C1C2(C)C` [cabazitaxel], the “taxane loaded onto the microspheres from the solution” value in data set [1] is reported as “about 60%”.

On to `CC(=O)O[C@@]12CO[C@@H]1C[C@H](O)[C@@]1(C)C(=O)[C@H](O)C3=C(C)[C@@H](OC(=O)[C@H](O)[C@@H](NC(=O)OC(C)(C)C)c4ccccc4)C[C@@](O)([C@@H](OC(=O)c4ccccc4)[C@H]21)C3(C)C` [docetaxel, Docetaxel], for which the concentration at 1 day is 340 ± 42.9 nM in data set [2] (Heart); 115 ± 22.4 nM in data set [2] (Kidney); 87.3 ± 7.85 nM in data set [2] (Liver); 641 ± 92.4 nM in data set [2] (Lung); 14.1 ± 11.9 nM in data set [2] (Spleen). The concentration at 10 day was 90.1 ± 19.4 nM in data set [2] (Heart); 115 ± 22.4 nM in data set [2] (Kidney); 27 ± 11.9 nM in data set [2] (Liver); 256 ± 35.5 nM in data set [2] (Lung); 35.3 ± 51.9 nM in data set [2] (Spleen). Also, the concentration at 35 day in data set [2] (Heart) was found to be 0.97 ± 2.37 nM; in data set [2] (Kidney), 1.17 ± 2.86 nM; in data set [2] (Liver) it was 0 nM; in data set [2] (Lung) it was 13.8 ± 16.2 nM; in data set [2] (Spleen), 0 nM. Moreover, in the data set with PC3 cells, the “toxicity against the PC3 cells in the colony forming assay” value is on record as 100%. In data set [1], the “taxane loaded onto the microspheres from the solution” value is on record as “Approximately 80%”. Moreover, the “time of maximum loading onto the TIPS particles” value in data set [1] (room temperature, no heating or cooling steps) is at most 60 min. The “cumulative release of total DTX loaded” value in data set [3] is recorded as “approximately 95%”. Besides, the figures for the “plasma DTX level, I.V. DTX relative to DTX-TIPS group” value in data set [4] (1 hour post-administration) and in data set [4] (24 hour post-administration) were 102 fold and 8 fold, respectively. Further, in data set [4] (48 hours, 72 hours, day 10 and day 15, I.V. 10 mg/kg once weekly for three weeks), the DTX in plasma result is “detectable levels of DTX remaining in the plasma”. Besides, the “tumour volume over the study period” value in the data set on PC3 xenograft tumour (Example 8, compared with saline or control microsphere group) was “Tumour growth inhibition was most apparent”. The “tumour volume / tumour growth inhibition” value in the data set on PC3 xenograft tumour (Example 9, DTX-TIPS compared with I.V. DTX, until day 21) is on record as “did not increase”.
